# “And” between values parts separate entries of the source, which are not always exact repeats. Equal entries are not always repeated. Positions of bridges follow the written chain, without caps; N, C: chain ends. Non-standard residues stand in square brackets, D forms with d. hArg = N=C(N)NCCCC[C@H](N)C(=O)O; S5 = C=CCCC[C@](C)(N)C(=O)O
# T1: human PTH1 receptor (human, UniProt Q03431 27-593)
# T1 sequence (looked up): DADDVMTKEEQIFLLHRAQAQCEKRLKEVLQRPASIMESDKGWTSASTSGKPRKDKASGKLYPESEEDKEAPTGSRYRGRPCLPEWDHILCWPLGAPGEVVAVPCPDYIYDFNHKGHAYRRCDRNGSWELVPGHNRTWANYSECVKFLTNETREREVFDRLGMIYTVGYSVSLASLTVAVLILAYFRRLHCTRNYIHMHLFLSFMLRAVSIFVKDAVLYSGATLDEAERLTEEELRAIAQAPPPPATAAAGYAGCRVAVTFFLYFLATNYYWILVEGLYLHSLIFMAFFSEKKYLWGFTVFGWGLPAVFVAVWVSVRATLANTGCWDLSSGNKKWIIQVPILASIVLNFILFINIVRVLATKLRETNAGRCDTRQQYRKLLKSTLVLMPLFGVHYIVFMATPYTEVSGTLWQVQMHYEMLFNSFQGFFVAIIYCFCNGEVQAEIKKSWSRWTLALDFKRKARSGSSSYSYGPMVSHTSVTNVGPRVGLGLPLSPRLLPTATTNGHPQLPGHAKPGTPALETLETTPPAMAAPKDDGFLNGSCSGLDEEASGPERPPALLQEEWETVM
# What was measured:
# PTH receptor type 2 = PTH receptor type 2 (UniProt P49190 25-550, limits assumed); test: cell-based or functional assay
# Chain of PTH receptor type 2 (P49190 25-550 limits assumed): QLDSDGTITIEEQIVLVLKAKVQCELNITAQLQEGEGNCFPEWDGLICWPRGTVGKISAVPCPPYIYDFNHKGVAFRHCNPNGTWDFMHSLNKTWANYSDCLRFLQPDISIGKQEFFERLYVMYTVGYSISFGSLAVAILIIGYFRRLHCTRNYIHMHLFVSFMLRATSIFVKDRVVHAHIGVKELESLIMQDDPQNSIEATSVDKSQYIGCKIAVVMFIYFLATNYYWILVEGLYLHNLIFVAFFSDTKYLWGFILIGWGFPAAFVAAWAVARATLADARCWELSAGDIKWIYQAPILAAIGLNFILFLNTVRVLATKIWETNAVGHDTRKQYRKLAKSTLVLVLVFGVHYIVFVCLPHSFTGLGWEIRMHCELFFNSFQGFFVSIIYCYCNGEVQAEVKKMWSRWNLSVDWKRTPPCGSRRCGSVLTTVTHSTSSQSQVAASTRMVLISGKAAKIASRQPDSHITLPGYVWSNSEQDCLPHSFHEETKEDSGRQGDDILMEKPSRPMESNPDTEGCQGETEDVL
# [1] = system: PTH (1-34) induced hypercalcemia; test: TPTx rat model of PTH (1-34) induced hypercalcemia; format: in vivo; settings: for Ionized calcium, Avg. / Total calcium, Avg. / Ionized calcium, individual animals / Total calcium, individual animals: Group 2 Vehicle/PTH; for Ionized calcium, Avg. / Total calcium, Avg.: TPTx rats, PTH 1.25 μg/kg/h IV infusion
# Experimental: PTH Antagonist in a TPTx Rat Model of PTH (1-34) Induced Hypercalcemia
# Experiments were conducted assess the effect of a PTH antagonist SP#63 in a thyroparathyroidectomized (TPTx) rat model of PTH (1-34) induced hypercalcemia. Thyroid hormone was given as supportive therapy prior to start of PTH infusion.
# SP#63 or the vehicle for SP#63 was administered as an intravenous (IV) bolus in PTH infused thyroparathyroidectomized (TPTx) Sprague-Dawley rats. SP#63 was administered at 0.925 mg/kg and 1.850 mg/kg, 1 to 3 min before the initiation of the IV infusion. PTH (administered at 1.25 μg/kg/h) or the vehicle for PTH were infused via a femoral catheter over a period of 6 hours at a rate of 1 mL/kg/h. Total and ionized calcium were measured from blood samples collected at 0, 2, 4 and 6 hours during the IV infusion.
# human PTH1 receptor = molecular target: T1, human PTH1 receptor; test: cell-based or functional assay
molecule,measurement,setting,value
BIM-44002 (peptide),calcium flux IC50,PTH receptor type 2,> 10 µM
PTH (1-34),"Ionized calcium, Avg.",[1]; 2 h,4.13 mg/dL
same,"Total calcium, Avg.",[1]; 2 h,8.28 mg/dL
same,"Ionized calcium, Avg.",[1]; 4 h,4.62 mg/dL
same,"Total calcium, Avg.",[1]; 4 h,9.14 mg/dL
same,"Ionized calcium, Avg.",[1]; 6 h,4.99 mg/dL
same,"Total calcium, Avg.",[1]; 6 h,9.92 mg/dL
same,"Ionized calcium, Avg.",[1]; time 0,3.36 mg/dL
same,"Total calcium, Avg.",[1]; time 0,7.22 mg/dL
same,"Ionized calcium, individual animals","[1]; animals 2001-2005, 2 h",4.08 mg/dL and 3.27 mg/dL and 4.85 mg/dL and 4.68 mg/dL and 3.75 mg/dL
same,"Total calcium, individual animals","[1]; animals 2001-2005, 2 h",8.2 mg/dL and 6.6 mg/dL and 9.8 mg/dL and 9.3 mg/dL and 7.5 mg/dL
same,"Ionized calcium, individual animals","[1]; animals 2001-2005, 4 h",4.58 mg/dL and 3.88 mg/dL and 5.29 mg/dL and 5.02 mg/dL and 4.34 mg/dL
same,"Total calcium, individual animals","[1]; animals 2001-2005, 4 h",9.1 mg/dL and 7.6 mg/dL and 10.5 mg/dL and 9.8 mg/dL and 8.7 mg/dL
same,"Ionized calcium, individual animals","[1]; animals 2001-2005, 6 h",5.06 mg/dL and 4.15 mg/dL and 5.71 mg/dL and 5.23 mg/dL and 4.79 mg/dL
same,"Total calcium, individual animals","[1]; animals 2001-2005, 6 h",10.1 mg/dL (2×) and 8.3 mg/dL and 11.4 mg/dL and 9.7 mg/dL
same,"Ionized calcium, individual animals","[1]; animals 2001-2005, time 0",3.21 mg/dL and 3.07 mg/dL and 4.01 mg/dL and 3.16 mg/dL
same,"Total calcium, individual animals","[1]; animals 2001-2005, time 0",6.7 mg/dL and 6.4 mg/dL and 8.4 mg/dL and 8.3 mg/dL and 6.3 mg/dL
same,ionized calcium at 6 h,"[1]; PTH infusion 1.25 μg/kg/h with vehicle for SP#63, 3.36 mg/dL at 0 h",4.99 mg/dL
same,total calcium at 6 h,"[1]; PTH infusion 1.25 μg/kg/h with vehicle for SP#63, 7.22 mg/dL at 0 h",9.92 mg/dL
TIP-39 (from UniProt Q96A98 62-100) (ligand),"calcium flux, EC80",PTH receptor type 2,0.0041 µM
"H-LLHQ[hArg]AK[S5]IQD[S5]RRR[S5]WLH[S5]LIAEIHTAEY-NH2 (staple 8-12, 16-20) [SP# 67]",calcium flux IC50,PTH receptor type 2,< 10 µM
"H-LLH[S5]RAK[S5]IQDLRRRFW[S5]HHL[S5]AEIHTA-NH2 (staple 18-22, 4-8) [SP# 226]","IC50, SaOS-2 cAMP with PTH[1-84] or PTHrP[1-34] as ligand",human PTH1 receptor,< 0.01 µM
"H-LLHQRA[S5]WIQ[S5]LRRR[S5]WLR[S5]KLQDVHNF-NH2 (staple 7-11, 16-20) [SP# 246]","IC50, SaOS-2 cAMP with PTH[1-84] or PTHrP[1-34] as ligand",human PTH1 receptor,< 0.01 µM
H-LLHQRAKWIQD[S5]RRR[S5]WLRKKLQDVHNF-NH2 (staple 12-16) [SP# 247],"IC50, SaOS-2 cAMP with PTH[1-84] or PTHrP[1-34] as ligand",human PTH1 receptor,< 0.01 µM
"H-LLHQRA[S5]WIQ[S5]LRRREW[S5]RKK[S5]QDVHNF-NH2 (staple 7-11, 18-22) [SP# 245]","IC50, SaOS-2 cAMP with PTH[1-84] or PTHrP[1-34] as ligand",human PTH1 receptor,< 0.01 µM
"H-LL[S5]QRA[S5]WIQDLRRRFW[S5]HHL[S5]AEIHTA-NH2 (staple 18-22, 3-7) [SP# 228]","IC50, SaOS-2 cAMP with PTH[1-84] or PTHrP[1-34] as ligand",human PTH1 receptor,< 0.01 µM
"H-LL[S5]QRA[S5]WIQD[S5]RRR[S5]WLHHLIAEIHTA-NH2 (staple 12-16, 3-7) [SP# 232]","IC50, SaOS-2 cAMP with PTH[1-84] or PTHrP[1-34] as ligand",human PTH1 receptor,< 0.01 µM
